# Measurements as given in patent US8158165B2, “Preventative treatment and remission of allergic diseases” (CSIR, priority 2006, dated 2012).
# Values joined by “and” are separate entries in the source; they are usually repeats but may differ in a detail not shown here. Equal values may be shown once.
# How the values were obtained:
# IL-8 = IL-8 in bronchoalveolar lavage fluid after ovalbumin challenge (ELISA); assay type: in vivo, guinea pig; conditions: BALF, WG-1-101 500 mg/kg PO, Phenidone 30 mg/kg IV
# Procedure: (§1) The test substance at 500 mg/kg was administered orally twice daily for 3 consecutive days and an additional final dose was added on testing day, then, one hour after final dose, the animals were injected intravenously (1 ml/kg) with a “cocktail”: Indomethacin (10 mg/kg), Mepyramine (2 mg/kg), and Propranolol (100 μg/kg), followed by challenge with ovalbumin 5 minutes later. […] Bronchoalveolar lavage fluid was retrieved after instilling 5 ml of phosphate buffered saline for 2 times. TNF-α, IL-1β and IL-8 in bronchoalveolar lavage fluid (BALF) supernatants were measured with ELISA after ovalbumin challenge. One-way ANOVA followed by Dunnett's Test was applied for comparison between the vehicle control and test compound-treated groups. P<0.05 is considered significant.
# (§2) Bronchoalveolar lavage fluid (BALF) samples in the WG-I-101-treated group were prepared for measurements of TNF-α, IL-1β and IL-8 after ovalbumin challenge. One-way ANOVA followed by Dunnett's test was applied for comparison between the vehicle control and test compound-treated groups. P<0.05 is considered significant.
# (§3) Bronchoalveolar lavage fluid (BALF) samples in the WG-I-101 treated group were prepared for measurements of TNF-α, IL-1β and IL-8 after Ovalbumin challenge. TNF-α, IL-1β and IL-8 levels of each sample were assessed using TNF-α, IL-1β and IL-8 ELISA kits, respectively. […]
# IL-1β = IL-1β in bronchoalveolar lavage fluid after ovalbumin challenge (ELISA); assay type: in vivo, guinea pig; conditions: BALF, WG-1-101 500 mg/kg PO, Phenidone 30 mg/kg IV
# Procedure: as §1, §2, §3
# [1] = tested on: Ovalbumin-induced bronchoconstriction; conditions: assay protocol reference data; cited from earlier work
# [2] = tested on: Ovalbumin-induced bronchoconstriction; assay: Pulmonary, Antigen/Lipoxygenase Metabolites, in Guinea Pigs (intratracheal pressure); assay type: in vivo, guinea pig
# Procedure: Assays were performed at MDS Pharma in Taiwan and reference standards used as an integral part of each assay to ensure the validity of the results obtained. The biological assay employed was the Pulmonary, Antigen/Lipoxygenase Metabolites assay and the diethyl ether extract of Siphonochilus aethiopicus was evaluated for possible activity in this in vivo assay.
# WG-I-101 was suspended in 0.5% CMC/0.1% Tween 80. The test substance at a dose of 500 mg/kg was given orally twice daily for 3 consecutive days and an additional final dose was added at one hour before challenge of Ovalbuminon testing day. Dosing volume of 10 ml/kg was used. The formulation is summarized as follows: […]
# Groups of 5 Dunkin-Hartley derived male guinea pigs weighing 400±50 g (final day) were employed. The animals were anesthetized with pentobarbital sodium (50 mg/kg IP, with an additional 15 mg/kg IP if needed). An aluminum plate kept at 37° C. through water flow from a bath was placed beneath the test animals to maintain body temperature. The trachea was cannulated and a rodent ventilator (Harvard, USA) was used for artificial ventilation (10 ml/kg, 50 breaths/minute). Through a side-arm of the cannula, intratracheal pressure (ITP) was measured using a Pneumatic pulse transducer (Narco Biosystem, USA). A carotid artery was cannulated (PE50, Clay Adams, USA) for measurements of blood pressure using a Stathem P23×L transducer (Viggo-Spectramed, USA) and heart rate was obtained from lead II ECG. Guinea pigs were sensitized with IP injections of ovalbumin (0.5 μg/0.5 ml/animal) and Al (OH)3 (1 mg/0.5 ml/animal) on days 1 and 8. The animals were then challenged with 15 μg/kg of Ovalbumin (IV) between days 19 and 23 and bronchopulmonary constriction was recorded as an increase in ITP.
# as §1
# Anesthetized and artificially ventilated guinea pigs previously sensitized were pretreated with Mepyramine 2 mg/kg, Indomethacin 10 mg/kg and Propranol 0.1 mg/kg for 5 minutes; arterial blood pressure (BP, mm Hg), heart rate (HR, beats/min.) and tracheal pressure (TP, cm H2O) were recorded after oral dosing for 3 days. At the end of chronic dosing, antigen (Ovalbumin 15 μg/kg IV)-induced increase in tracheal pressure (ITP) above an initial baseline of 6 cm H2O was then recorded as an indication of bronchoconstriction. Percent (%) inhibition is calculated according to the formula of [Increase in Tracheal Pressure (vehicle-treated)]−[Increase in Tracheal Pressure (test substance-treated)/[Increase in Tracheal Pressure (vehicle-treated)]×100%. • 1. ΔITP: Changes in ITP over corresponding baseline values; (−) Oval: Response to vehicle or test substance alone and before Ovalbumin challenge; (+) Oval: Changes in response to Ovalbumin challenge. • 2. % Control: ITP response to test substance, vehicle expressed in terms of percentage of the ITP response to Ovalbumin (15 μg/kg IV) in the vehicle-treated control (100%). • 3. […]
# The trachea is cannulated and the guinea pig ventilated with a Harvard rodent respirator in a closed system. Tracheal pressure is recorded through a side-arm of the cannula connected to a P23ID Statham transducer. […]
# TNF-α = TNF-α in bronchoalveolar lavage fluid after ovalbumin challenge (ELISA); assay type: in vivo, guinea pig; conditions: BALF, WG-1-101 500 mg/kg PO, Phenidone 30 mg/kg IV
# Procedure: as §1, §2, §3
structure (smiles),measurement,setting,value
O=C1CCN(c2ccccc2)N1 [Phenidone],"IL-8 Cont(pg/ml), X","IL-8; group mean, * P<0.05 vs vehicle",0.97* pg/ml
same,IL-8 Cont(pg/ml),IL-8; individual animals N 1-5,3.63 pg/ml and 1.22 pg/ml and 0.00 pg/ml (3×)
same,"IL-1β (pg/ml), X",IL-1β; group mean,1.21 pg/mL
same,IL-1β,IL-1β; individual animals N 1-5,3.10 pg/mL and 0.24 pg/mL and 0.46 pg/mL and 2.25 pg/mL and 0.00 pg/mL
same,MED mg/kg i.v.,[1],30 mg/kg
same,% Control,[2]; ITP response to test substance as % of Ovalbumin response in vehicle control,0%
same,"ΔITP (cm H2O) (+) Oval, X ± SEM","[2]; group mean of 5, response to Ovalbumin 15 μg/kg IV, WG-1-101 500 mg/kg PO bidx3 & qdx1, Phenidone 30 mg/kg IV qdx1",1.8 ± 0.8 cm H2O
same,"ΔITP (cm H2O) (−) Oval, X ± SEM","[2]; group mean, before Ovalbumin challenge, WG-1-101 500 mg/kg PO bidx3 & qdx1, Phenidone 30 mg/kg IV qdx1",0 cm H2O
same,ΔITP (cm H2O) (−) Oval,"[2]; individual animals N 1-5, before Ovalbumin challenge, WG-1-101 500 mg/kg PO bidx3 & qdx1, Phenidone 30 mg/kg IV qdx1",0 cm H2O
same,ΔITP (cm H2O) (+) Oval,"[2]; individual animals N 1-5, response to Ovalbumin 15 μg/kg IV, WG-1-101 500 mg/kg PO bidx3 & qdx1, Phenidone 30 mg/kg IV qdx1",4.8 cm H2O and 1.8 cm H2O and 1.2 cm H2O and 0.6 cm H2O (2×)
same,% Inhibition of Ovalbumin-induced bronchoconstriction,"[2]; relative to vehicle-treated control, WG-1-101 500 mg/kg PO bidx3 & qdx1, Phenidone 30 mg/kg IV qdx1",(89) %
same,"TNF-α (pg/ml), X",TNF-α; group mean,7.62 pg/mL
same,TNF-α,TNF-α; individual animals N 1-5,12.03 pg/mL and 7.0 pg/mL and 3.79 pg/mL and 8.96 pg/mL and 6.33 pg/mL
CN1[C@@H]2CC[C@H]1C[C@@H](OC(=O)C(CO)c1ccccc1)C2 (stereo partly drawn) [Atropine],MED mg/kg i.v.,[1],>10 mg/kg
"CCCc1c(OCCCCc2nnn[nH]2)ccc(C(C)=O)c1O [LY-171883, 1[2-hyroxy-3-propyl-4-[4-(1H-tetrazol-5-yl)butoxy]phenyl]ethanone]",MED mg/kg i.v.,[1],30 mg/kg
O=C(O)c1cc(=O)c2c(OCC(O)COc3cccc4oc(C(=O)O)cc(=O)c34)cccc2o1 [Cromolyn Sodium],MED mg/kg i.v.,[1],>100 mg/kg
"CC(Cc1ccc(O)c(O)c1)C(C)Cc1ccc(O)c(O)c1 (stereo not drawn) [NDGA, nordihydroguaretic acid]",MED mg/kg i.v.,[1],10 mg/kg
CC(C)(C)NCC(O)c1ccc(O)c(CO)c1 (stereo not drawn) [Salbutamol],MED mg/kg i.v.,[1],0.1 mg/kg
